Reference: PMC7725003, “Systematically Studying the Optimal Amino Acid Distribution Patterns of the Amphiphilic Structure by Using the Ultrashort Amphiphiles” (Frontiers in Microbiology, 2020)
Where no end group is shown, it is not given here.

Tests used:
S. aureus 29213 [1] = assay: Salt sensitivity assay (MIC); type: cell-based, Staphylococcus aureus; conditions: for MIC, FeCl3: 4 μM FeCl3; for MIC, NH4Cl: 6 μM NH4Cl; for MIC, ZnCl2: 8 μM ZnCl2; for MIC, MgCl2: 1 mM MgCl2; for MIC, CaCl2: 2 mM CaCl2; for MIC, KCl: 4.5 mM KCl; for MIC, NaCl: 150 mM NaCl; for MIC, Control: no added salt, three independent assays
Procedure, shortened: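 MICs determined by broth microdilution in MHB with 0.5–1 × 10^6 CFU/mL, peptides serially diluted in 0.2% BSA, 24 h at 37°C. Medium supplemented with physiological salts (150 mM NaCl, 4.5 mM KCl, 6 μM NH4Cl, 8 μM ZnCl2, 1 mM MgCl2, 2mM CaCl2, 4 μM FeCl3). MIC = lowest concentration inhibiting 95% growth (A492).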

E. coli ATCC 25922 = assay: Salt sensitivity assay (MIC); type: cell-based, Escherichia coli; conditions: for MIC, FeCl3: 4 μM FeCl3; for MIC, NH4Cl: 6 μM NH4Cl; for MIC, ZnCl2: 8 μM ZnCl2; for MIC, MgCl2: 1 mM MgCl2; for MIC, CaCl2: 2 mM CaCl2; for MIC, KCl: 4.5 mM KCl; for MIC, NaCl: 150 mM NaCl; for MIC, Control: no added salt, three independent assays
Procedure, shortened: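 The salt sensitivity of peptides was tested against E. coli ATCC 25922 using a modified NCCLS broth microdilution MIC method. Mid-log bacteria were diluted in MHB to 0.5–1 × 10^6 CFU mL^–1 and mixed in equal volumes with peptides serially diluted in 0.2% BSA in 96-well plates. Physiological salt was added where specified, and the assay was done three independent times.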

MRSA 43300 = type: cell-based, methicillin-resistant S. aureus; conditions: 43300, 24 h
Procedure, shortened: (§1)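 Bacteria were grown to mid-log phase and diluted in MHB to 0.5–1 × 10^6 CFU mL^–1. Serial peptide dilutions in 0.2% BSA were added at equal volume and plates incubated 24 h at 37°C. Growth inhibition of 95% at 492 nm defined the MIC.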

Gram-negative bacteria [2] = conditions: geometric mean of MBCs, 9 Gram-negative strains (Table 2)
S. typhimurium 7731 = type: cell-based, Salmonella typhimurium; conditions: 7731, 24 h
Procedure, shortened: as §1

S. typhimurium 14028 = type: cell-based, Salmonella typhimurium; conditions: 14028, 24 h
Procedure, shortened: as §1

S. aureus 29213 [3] = type: cell-based, Staphylococcus aureus; conditions: 29213, 24 h
Procedure, shortened: as §1

S. aureus 25923 = type: cell-based, Staphylococcus aureus; conditions: 25923, 24 h
Procedure, shortened: as §1

[4] = tested on: all of the tested bacterial strains; assay: Geometric mean of MICs, all tested bacterial strains; type: cell-based; conditions: for GM, All: geometric mean of MICs across all tested strains; for TI, All: therapeutic index TI = MHC/GM MIC
Procedure, shortened: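 Mid-log bacteria at 0.5–1 × 10^6 CFU mL^–1 in MHB with peptides serially diluted in 0.2% BSA, 24 h at 37°C. MIC is the lowest concentration giving 95% growth inhibition by A492. MBC is the lowest giving >99.9% kill on agar subculture, and the GM is taken over all strains.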

Gram-positive bacteria [5] = conditions: for GM MIC: geometric mean of MICs, 7 Gram-positive strains (Table 2); for TI, Gram-positive bacteria: therapeutic index TI = MHC/GM MIC
Procedure, shortened: (§2)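 Broth microdilution adapted from NCCLS: mid-log bacteria diluted in MHB to 0.5–1 × 10^6 CFU mL^–1, mixed with peptides serially diluted in 0.2% BSA. After 24 h at 37°C, MIC taken as the lowest concentration inhibiting 95% of growth by absorbance at 492 nm. Assays repeated more than 3 times.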

Gram-negative bacteria [6] = conditions: for GM MIC: geometric mean of MICs, 9 Gram-negative strains (Table 2); for TI, Gram-negative bacteria: therapeutic index TI = MHC/GM MIC
Procedure, shortened: as §2

Gram-positive bacteria [7] = conditions: geometric mean of MBCs, 7 Gram-positive strains (Table 2)
E. coli K88 = conditions: for MIC: MHB, 24 h 37°C, 95% growth inhibition; for MBC: value in brackets, >99.9% of cells killed
Procedure: (§3) The antimicrobial activities of the peptides were measured using a method adapted from the National Committee for Clinical Laboratory Standards (NCCLS) with some modifications ([Chou et al., 2016]). The specific procedure for these assays has been previously described. In brief, the bacterial cells were grown to a mid-logarithmic phase and diluted in MHB to an ultimate concentration of 0.5–1 × 10^6 CFU mL^–1. Subsequently, the peptides were consecutively diluted in a 0.2% BSA solution and then added to a bacterial solution in a 96-well plate at identical volumes. After incubation for 24 h at 37°C, the MICs were determined to be the lowest peptide concentration that inhibited 95% of the bacterial growth by monitoring the absorbance at 492 nm using a microplate reader. Subsequently, 50 μL of each incubation mixture was further transferred to agar plates and incubated overnight. […] Every assay was reproduced more than 3 times.

E. coli K99 = conditions: for MIC: MHB, 24 h 37°C, 95% growth inhibition
Procedure: as §3

P. aeruginosa 27853 = type: cell-based, Pseudomonas aeruginosa; conditions: 27853, 24 h
Procedure, shortened: as §1

S. pullorum 7913 = type: cell-based, Salmonella pullorum; conditions: 7913, 24 h
Procedure, shortened: as §1

E. faecalis 29212 = type: cell-based, Enterococcus faecalis; conditions: 29212, 24 h
Procedure, shortened: as §1

B. subtilis 63501 = type: cell-based, Bacillus subtilis; conditions: 63501, 24 h
Procedure, shortened: as §1

S. epidermidis 12228 = type: cell-based, Staphylococcus epidermidis; conditions: 12228, 24 h
Procedure, shortened: as §1

[8] = tested on: Listeria monocytogenes CGMCC 1.1075; type: cell-based; conditions: CGMCC 1.1075, 24 h
Procedure, shortened: as §1

E. coli O78 = type: cell-based, Escherichia coli; conditions: O78, 24 h
Procedure, shortened: as §1

E. coli 25922 = type: cell-based, Escherichia coli; conditions: 25922, 24 h
Procedure, shortened: as §1

E. coli UB1005 = type: cell-based, Escherichia coli; conditions: UB1005, 24 h
Procedure, shortened: as §1

LRRRRLLLL-NH2 [L11]
MIC, FeCl3 (S. aureus 29213 [1]): > 64 µM
MIC, NH4Cl (S. aureus 29213 [1]): > 64 µM
MIC, ZnCl2 (S. aureus 29213 [1]): > 64 µM
MIC, MgCl2 (S. aureus 29213 [1]): > 64 µM
MIC, CaCl2 (S. aureus 29213 [1]): > 64 µM
MIC, KCl (S. aureus 29213 [1]): > 64 µM
MIC, NaCl (S. aureus 29213 [1]): > 64 µM
MIC, Control (S. aureus 29213 [1]): > 64 µM
MIC, FeCl3 (E. coli ATCC 25922): > 64 µM
MIC, NH4Cl (E. coli ATCC 25922): > 64 µM
MIC, ZnCl2 (E. coli ATCC 25922): > 64 µM
MIC, MgCl2 (E. coli ATCC 25922): > 64 µM
MIC, CaCl2 (E. coli ATCC 25922): > 64 µM
MIC, KCl (E. coli ATCC 25922): > 64 µM
MIC, NaCl (E. coli ATCC 25922): > 64 µM
MIC, Control (E. coli ATCC 25922): > 64 µM
MIC (MRSA 43300): >64 µM
GM MBC (Gram-negative bacteria [2]): 118.51 µM
MIC (S. typhimurium 7731): > 64 µM
MIC (S. typhimurium 14028): > 64 µM
MIC (S. aureus 29213 [3]): >64 µM
MIC (S. aureus 25923): > 64 µM
GM, All [4]: 79.48 µM
TI, All [4]: 3.22
GM MIC (Gram-positive bacteria [5]): 57.97 µM
TI, Gram-positive bacteria (Gram-positive bacteria [5]): 4.42
GM MIC (Gram-negative bacteria [6]): 101.59 µM
TI, Gram-negative bacteria (Gram-negative bacteria [6]): 2.52
GM MBC (Gram-positive bacteria [7]): 70.66 µM
MIC (E. coli K88): 32 µM
MBC (E. coli K88): 64 µM
MIC (E. coli K99): > 64 µM
MIC (P. aeruginosa 27853): > 64 µM
MIC (S. pullorum 7913): >64 µM
MIC (E. faecalis 29212): > 64 µM
MBC (B. subtilis 63501): 16 µM
MIC (B. subtilis 63501): 8 µM
MIC (S. epidermidis 12228): > 64 µM
MBC [8]: 16 µM
MIC [8]: 8 µM
MBC (E. coli O78): 128 µM
MIC (E. coli O78): 64 µM
MIC (E. coli 25922): > 64 µM
MIC (E. coli UB1005): >64 µM

RLLLLRRLR-NH2 [L10]
MIC, FeCl3 (S. aureus 29213 [1]): > 64 µM
MIC, NH4Cl (S. aureus 29213 [1]): > 64 µM
MIC, ZnCl2 (S. aureus 29213 [1]): > 64 µM
MIC, MgCl2 (S. aureus 29213 [1]): > 64 µM
MIC, CaCl2 (S. aureus 29213 [1]): > 64 µM
MIC, KCl (S. aureus 29213 [1]): > 64 µM
MIC, NaCl (S. aureus 29213 [1]): > 64 µM
MIC, Control (S. aureus 29213 [1]): > 64 µM
MIC, FeCl3 (E. coli ATCC 25922): 32 µM
MIC, NH4Cl (E. coli ATCC 25922): 32 µM
MIC, ZnCl2 (E. coli ATCC 25922): 32 µM
MIC, MgCl2 (E. coli ATCC 25922): 32 µM
MIC, CaCl2 (E. coli ATCC 25922): 32 µM
MIC, KCl (E. coli ATCC 25922): 32 µM
MIC, NaCl (E. coli ATCC 25922): 32 µM
MIC, Control (E. coli ATCC 25922): 32 µM
MIC (MRSA 43300): >64 µM
GM MBC (Gram-negative bacteria [2]): 64.00 µM
MBC (S. typhimurium 7731): 128 µM
MIC (S. typhimurium 7731): 64 µM
MIC (S. typhimurium 14028): >64 µM
MIC (S. aureus 29213 [3]): >64 µM
MIC (S. aureus 25923): > 64 µM
GM, All [4]: 51.54 µM
TI, All [4]: 4.97
GM MIC (Gram-positive bacteria [5]): 70.66 µM
TI, Gram-positive bacteria (Gram-positive bacteria [5]): 3.62
GM MIC (Gram-negative bacteria [6]): 40.32 µM
TI, Gram-negative bacteria (Gram-negative bacteria [6]): 6.35
GM MBC (Gram-positive bacteria [7]): 86.14 µM
MIC (E. coli K88): 32 µM
MBC (E. coli K88): 64 µM
MIC (E. coli K99): 4 µM
MBC (E. coli K99; value in brackets, >99.9% of cells killed): 8 µM
MBC (P. aeruginosa 27853): 64 µM
MIC (P. aeruginosa 27853): 32 µM
MIC (S. pullorum 7913): > 64 µM
MIC (E. faecalis 29212): > 64 µM
MBC (B. subtilis 63501): 32 µM
MIC (B. subtilis 63501): 16 µM
MIC (S. epidermidis 12228): > 64 µM
MBC [8]: 32 µM
MIC [8]: 16 µM
MBC (E. coli O78): 32 µM
MIC (E. coli O78): 16 µM
MBC (E. coli 25922): 64 µM
MIC (E. coli 25922): 32 µM
MIC (E. coli UB1005): > 64 µM
